# Assay results published in the NIST ThermoML archive (doi:10.1021/je901063s).
# Where “and” joins values, the source holds several entries; their conditions need not be identical. Equal entries are not always repeated. ± gives the expanded uncertainty stated by the source.
# Tests used:
# [1] = of the first substance listed, at infinite dilution; xn = mol fraction of the nth substance listed; conditions: 101 kPa, Liquid, flow mixing microcalorimeter, x1 = 0
# [2] = activity coefficient (dimensionless); of the first substance listed, at infinite dilution; xn = mol fraction of the nth substance listed; conditions: 101 kPa, Liquid, inert gas stripping, headspace analysis in two variants - the classical and the relative, Rayleigh distillation, and circulation still, x1 = 0
SMILES,partial molar enthalpy ([1]; 288.15 K),partial molar enthalpy ([1]; 298.15 K),partial molar enthalpy ([1]; 308.15 K),activity coefficient ([2]; 273.35 K),activity coefficient ([2]; 283.15 K),activity coefficient ([2]; 293.15 K),activity coefficient ([2]; 303.15 K),activity coefficient ([2]; 313.15 K),activity coefficient ([2]; 323.15 K),activity coefficient ([2]; 333.15 K),activity coefficient ([2]; 343.15 K),activity coefficient ([2]; 353.15 K),activity coefficient ([2]; 363.15 K),activity coefficient ([2]; 371.15 K),activity coefficient ([2]; 361.25 K),activity coefficient ([2]; 371.45 K)
CCC(C)CO (stereo unspecified) [2-methyl-1-butanol] + O,-2.67 ± 0.0956 kcal/mol,-1.98 ± 0.0478 kcal/mol,-1.29 ± 0.0239 kcal/mol,86.3 ± 5.2,117 ± 7,138 and 134,158 and 151,163 and 173,180 and 173,170 and 179,169 ± 10,160 ± 10,162 ± 10,,,
CCC(C)(C)O [2-methylbutan-2-ol] + O,,,,18.3 ± 1.1,24.5 ± 1.5,31.7 and 34.6,41.3 and 39.2,49 and 46.5,52.3 and 56.9,59.3 and 61.4,64.2 ± 3.9,67.1 ± 4,,,75.4 ± 4.5,73.9 ± 4.4
CC(C)C(C)O (stereo unspecified) [3-methyl-2-butanol] + O,,,,43.5 ± 2.6,61.5 ± 3.7,73.9 ± 4.4,86.5 ± 5.2,96.6 ± 5.8,104 ± 6,110 ± 7,111 ± 7,107 ± 6,,108 ± 7,,

# Continued, in another order:
partial molar enthalpy ([1]; 288.15 K),partial molar enthalpy ([1]; 298.15 K),partial molar enthalpy ([1]; 308.15 K),activity coefficient ([2]; 273.35 K),activity coefficient ([2]; 283.15 K),activity coefficient ([2]; 293.15 K),activity coefficient ([2]; 303.15 K),activity coefficient ([2]; 313.15 K),activity coefficient ([2]; 323.15 K),activity coefficient ([2]; 333.15 K),activity coefficient ([2]; 343.15 K),activity coefficient ([2]; 353.15 K),activity coefficient ([2]; 363.15 K),activity coefficient ([2]; 371.15 K),SMILES,activity coefficient ([2]; 361.25 K),activity coefficient ([2]; 371.45 K)
,,,94.9 ± 5.7,126 ± 8,148 and 146,161 and 164,173 and 175,179 and 184,182 and 178,179 ± 11,164 ± 10,,149 ± 9,CC(C)CCO [3-methylbutan-1-ol] + O,,
,,,48.7 ± 2.9,63.1 ± 3.8,75.6 ± 4.5,88.7 ± 5.3,101 ± 6,108 ± 7,116 ± 7,111 ± 7,120 ± 7,117 ± 7,104 ± 6,CCC(O)CC [3-pentanol] + O,,
,,,58.8 ± 3.5,73.9 ± 4.4,89.2 and 86.1,104 and 103,119 ± 7,129 ± 8,134 ± 8,134 ± 8,124 ± 7,130 ± 8,118 ± 7,CCCC(C)O (stereo unspecified) [pentan-2-ol] + O,,
